Experimental data published in ChEMBL document CHEMBL4842376, “Design, synthesis and biological evaluation of novel hybrids targeting mTOR and HDACs for potential treatment of hepatocellular carcinoma” (Eur J Med Chem, 2021).
Active and inactive are the calls of the source. The calls are words filed in the database; no cut-off is given here.

How the values were obtained:
[1] = molecular target: T1, Protein deacetylase HDAC6 (Homo sapiens, UniProt Q9UBN7); test: Inhibition of HDAC6 (unknown origin) using Ac-peptide as a substrate pretreated for 15 mins followed by substrate addition
T1 sequence (Q9UBN7 whole entry): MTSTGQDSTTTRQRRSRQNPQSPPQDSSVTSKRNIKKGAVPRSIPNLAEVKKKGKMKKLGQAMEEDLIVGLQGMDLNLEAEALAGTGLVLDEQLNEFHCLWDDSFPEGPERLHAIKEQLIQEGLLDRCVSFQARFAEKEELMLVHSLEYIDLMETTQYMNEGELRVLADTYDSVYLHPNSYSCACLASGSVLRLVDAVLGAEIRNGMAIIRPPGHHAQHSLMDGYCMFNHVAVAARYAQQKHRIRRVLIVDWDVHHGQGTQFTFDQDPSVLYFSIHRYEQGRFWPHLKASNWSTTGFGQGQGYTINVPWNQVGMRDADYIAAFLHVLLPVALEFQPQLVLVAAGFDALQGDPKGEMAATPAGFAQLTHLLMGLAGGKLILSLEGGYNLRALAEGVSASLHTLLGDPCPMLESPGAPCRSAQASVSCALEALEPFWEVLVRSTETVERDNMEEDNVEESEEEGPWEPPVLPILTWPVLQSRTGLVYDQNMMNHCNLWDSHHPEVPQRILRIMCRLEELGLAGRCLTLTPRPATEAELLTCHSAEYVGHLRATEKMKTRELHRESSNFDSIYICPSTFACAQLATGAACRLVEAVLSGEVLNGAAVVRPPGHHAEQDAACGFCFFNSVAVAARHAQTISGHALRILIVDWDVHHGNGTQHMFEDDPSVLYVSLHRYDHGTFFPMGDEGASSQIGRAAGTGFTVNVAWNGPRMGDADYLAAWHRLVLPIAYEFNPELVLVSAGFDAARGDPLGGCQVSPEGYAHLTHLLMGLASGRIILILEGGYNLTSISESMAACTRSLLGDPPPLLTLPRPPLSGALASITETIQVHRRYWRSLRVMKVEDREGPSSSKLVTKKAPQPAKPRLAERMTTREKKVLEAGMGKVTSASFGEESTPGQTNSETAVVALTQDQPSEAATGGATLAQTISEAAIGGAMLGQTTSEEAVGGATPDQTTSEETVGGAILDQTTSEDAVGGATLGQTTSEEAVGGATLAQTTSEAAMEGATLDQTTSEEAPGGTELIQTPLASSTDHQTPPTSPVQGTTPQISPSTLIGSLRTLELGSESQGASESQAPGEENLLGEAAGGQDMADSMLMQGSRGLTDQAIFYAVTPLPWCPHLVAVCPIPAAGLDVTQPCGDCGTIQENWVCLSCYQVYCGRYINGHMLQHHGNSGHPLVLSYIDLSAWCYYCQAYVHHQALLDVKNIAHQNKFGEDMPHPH

HepG2 [2] = test: Induction of cell cycle arrest in human HepG2 cells assessed as accumulation of cells in S phase at 6 uM measured after 24 hrs by propidium iodide staining based flow cytometry analysis (reference value: 17 to 26.4%); format: functional
MCF7 = test: cells; format: functional, cell-based; conditions: Homo sapiens, MCF7, 72 h
Description: Antiproliferative activity against human MCF7 cells assessed as inhibition of cell growth measured after 72 hrs by MTT assay

HepG2 [3] = test: Induction of cell cycle arrest in human HepG2 cells assessed as accumulation of cells in S phase at 3 uM measured after 24 hrs by propidium iodide staining based flow cytometry analysis (reference value: 17 to 26.4%); format: functional
A549 = test: cells; format: functional, cell-based; conditions: Homo sapiens, A549, 72 h
Description: Antiproliferative activity against human A549 cells assessed as inhibition of cell growth measured after 72 hrs by MTT assay

Histone deacetylase 3 = Histone deacetylase 3 (Homo sapiens, UniProt O15379); test: Inhibition of HDAC3 (unknown origin) using Ac-peptide as a substrate pretreated for 15 mins followed by substrate addition
Chain of Histone deacetylase 3 (O15379 whole entry): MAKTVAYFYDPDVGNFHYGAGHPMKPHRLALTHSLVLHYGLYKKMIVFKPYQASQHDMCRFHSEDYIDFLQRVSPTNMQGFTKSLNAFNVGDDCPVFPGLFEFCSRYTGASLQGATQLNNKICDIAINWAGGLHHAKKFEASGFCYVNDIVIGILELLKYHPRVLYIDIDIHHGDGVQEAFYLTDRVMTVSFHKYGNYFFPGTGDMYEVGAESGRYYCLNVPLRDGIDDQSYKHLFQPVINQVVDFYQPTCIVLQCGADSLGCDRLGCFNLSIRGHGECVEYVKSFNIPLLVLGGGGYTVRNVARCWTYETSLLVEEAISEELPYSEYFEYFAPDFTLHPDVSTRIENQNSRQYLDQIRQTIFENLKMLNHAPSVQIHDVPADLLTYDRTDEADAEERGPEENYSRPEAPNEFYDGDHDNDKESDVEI

HepG2 [4] = test: Induction of apoptosis in human HepG2 cells assessed as necrotic cells at 2.5 uM measured after 24 hrs by Annexin V-FITC/PI staining based flow cytometry analysis (Rvb= 0.082%); format: functional
SK-HEP1 = test: cells; format: functional, cell-based; conditions: Homo sapiens, SK-HEP1, 72 h
Description: Antiproliferative activity against human SK-HEP1 cells assessed as inhibition of cell growth measured after 72 hrs by MTT assay

Hep 3B2 = test: cells; format: functional, cell-based; conditions: Homo sapiens, Hep3B, 72 h
Description: Antiproliferative activity against human Hep3B cells assessed as inhibition of cell growth measured after 72 hrs by MTT assay

[5] = molecular target: Histone deacetylase (Homo sapiens) (UniProt Q13547+O15379+Q9UBN7+Q92769+Q9UQL6+Q8WUI4+Q9BY41+Q96DB2+P56524+Q9UKV0+Q969S8); test: Inhibition of HDAC in human HepG2 cells assessed as upregulation of histone H3 acetylation at 6 uM measured after 24 hrs by western blot analysis; format: cell-based
Histone deacetylase 1 = Histone deacetylase 1 (Homo sapiens, UniProt Q13547); test: Inhibition of HDAC1 (unknown origin) using Ac-peptide as a substrate pretreated for 15 mins followed by substrate addition
Chain of Histone deacetylase 1 (Q13547 whole entry): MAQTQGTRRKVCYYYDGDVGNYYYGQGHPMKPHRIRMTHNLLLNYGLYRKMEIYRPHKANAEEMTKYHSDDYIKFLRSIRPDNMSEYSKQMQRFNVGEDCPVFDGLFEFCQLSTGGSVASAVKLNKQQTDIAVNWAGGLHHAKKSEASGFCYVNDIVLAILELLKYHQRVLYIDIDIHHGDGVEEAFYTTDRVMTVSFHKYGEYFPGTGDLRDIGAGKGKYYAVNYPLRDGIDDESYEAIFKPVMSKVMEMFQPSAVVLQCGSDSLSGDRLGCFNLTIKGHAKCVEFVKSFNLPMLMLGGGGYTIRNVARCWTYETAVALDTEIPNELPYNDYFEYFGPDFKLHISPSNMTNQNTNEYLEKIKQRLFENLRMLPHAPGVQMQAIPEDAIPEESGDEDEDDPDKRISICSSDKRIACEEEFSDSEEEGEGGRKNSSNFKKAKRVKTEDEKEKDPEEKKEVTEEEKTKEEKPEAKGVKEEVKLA

[6] = molecular target: T2, Protein deacetylase HDAC6 (Homo sapiens) (UniProt Q9UBN7); test: Inhibition of HDAC6 (unknown origin) at 1 uM using Ac-peptide as a substrate pretreated for 15 mins followed by substrate addition relative to control
T2 sequence (whole entry): T1 sequence (Q9UBN7 whole entry)

HepG2 [7] = test: Induction of apoptosis in human HepG2 cells assessed as dead cells at 10 uM measured after 24 hrs by Annexin V-FITC/PI staining based flow cytometry analysis (Rvb= 0.082%); format: functional
HepG2 [8] = test: Induction of apoptosis in human HepG2 cells assessed as live cells at 5 uM measured after 24 hrs by Annexin V-FITC/PI staining based flow cytometry analysis (Rvb= 84.6%); format: functional
HepG2 [9] = test: Induction of cell cycle arrest in human HepG2 cells assessed as accumulation of cells in G2/M phase at 1.5 uM measured after 24 hrs by propidium iodide staining based flow cytometry analysis (Rvb= 17.8 to 18.5%); format: functional
SNU-423 = test: Antiproliferative activity against human SNU-423 cells assessed as inhibition of cell growth measured after 72 hrs by MTT assay; format: functional, cell-based; conditions: SNU-423, 72 h
Histone deacetylase 8 = molecular target: T3, Histone deacetylase 8 (Homo sapiens, UniProt Q9BY41); test: Inhibition of HDAC8 (unknown origin) using Ac-peptide as a substrate pretreated for 15 mins followed by substrate addition
T3 sequence (Q9BY41 whole entry): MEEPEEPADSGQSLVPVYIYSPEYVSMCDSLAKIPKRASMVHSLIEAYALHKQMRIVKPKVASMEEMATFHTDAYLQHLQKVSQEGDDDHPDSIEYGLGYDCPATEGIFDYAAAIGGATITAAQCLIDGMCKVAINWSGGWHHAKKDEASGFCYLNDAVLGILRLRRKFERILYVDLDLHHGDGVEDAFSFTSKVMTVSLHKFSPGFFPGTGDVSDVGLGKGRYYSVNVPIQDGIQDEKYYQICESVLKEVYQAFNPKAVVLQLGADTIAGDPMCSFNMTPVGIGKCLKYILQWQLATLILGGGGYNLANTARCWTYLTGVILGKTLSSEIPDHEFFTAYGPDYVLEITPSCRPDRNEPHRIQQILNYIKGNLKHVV

in vitro = conditions: human, L02 cells versus HepG2 cells
Description: Selectivity index, ratio of IC50 for cytotoxicity against human L02 cells to IC50 for antiproliferative activity against human HepG2 cells

Nc1nc2cc(-c3nn(CCCCCCC(=O)NO)c4ncnc(N)c34)ccc2o1
IC50 [1]: 0.0103 µM
Activity (HepG2 [2]): 7.78%
IC50 (MCF7): 11.8 µM
Activity (HepG2 [3]): 15.2%
IC50 (A549): 33 µM
IC50 (Histone deacetylase 3): 0.0046 µM
Activity (HepG2 [4]): 0.15%
IC50 (SK-HEP1): 2.69 µM
IC50 (Hep 3B2): 14 µM
inhibition [5]: Active
IC50 (Histone deacetylase 1): 0.0031 µM
inhibition [6]: 99%
Activity (HepG2 [7]): 0.26%
Activity (HepG2 [8]): 69.6%
Activity (HepG2 [9]): 14.8%
IC50 (SNU-423): 6.1 µM
IC50 (Histone deacetylase 8): 0.231 µM
selectivity ratio (in vitro): 15.4

Nc1ncnc2c1c(-c1cnc3[nH]ccc3c1)nn2CCCCCCCCC(=O)NO
IC50 [1]: 0.00954 µM
Activity (HepG2 [2]): 11.5%
IC50 (MCF7): 24.7 µM
Activity (HepG2 [3]): 16.2%
IC50 (A549): 12.2 µM
IC50 (Histone deacetylase 3): 0.034 µM
Activity (HepG2 [4]): 0.56%
IC50 (SK-HEP1): 11.2 µM
IC50 (Hep 3B2): 8.39 µM
inhibition [5]: Active
IC50 (Histone deacetylase 1): 0.02 µM
inhibition [6]: 99.2%
Activity (HepG2 [7]): 0.56%
Activity (HepG2 [8]): 77.5%
Activity (HepG2 [9]): 19.4%
IC50 (SNU-423): 7.5 µM
IC50 (Histone deacetylase 8): 0.733 µM
selectivity ratio (in vitro): 11.5
